The source of these data is US12304813B2, “Sodium thiosulfate-containing pharmaceutical compositions” (Hope Medical Enterprises, Inc., priority 2009, dated 2025).

Series [1] deals with platinum-induced nephrotoxicity. The following applies: associated with platinum-containing chemotherapeutic agents; Current Opinions in Oncology 1995; cited from earlier work.
For series [2] the following is noted: Example 1 batch. How it is done:
In another embodiment, the sodium thiosulfate provided herein has a pH between about 6 to about 8 when measured in a 10% solution at 25° C. In certain embodiments, the pH of the sodium provided herein is measured using a pH meter. In certain embodiments, the pH of the sodium thiosulfate provided herein is determined according to Method 791 in USP XXXII (2009).

Series [3] relates to calciphylaxis. The following applies: literature report, Archives of Dermatology 2007; cited from earlier work.
Series [4] concerns platinum-induced ototoxicity. The following applies: associated with platinum-containing chemotherapeutic agents; Current Opinions in Oncology 1995; cited from earlier work.
The subject of series [5] is vascular calcification. The following applies: literature report, Kidney International 2008; cited from earlier work.

Regarding `O.O.O.O.O.O=S([O-])([O-])=S.[Na+].[Na+]` [sodium thiosulfate pentahydrate], in series [1], the “treatment to prevent platinum-induced nephrotoxicity” value is recorded as “effective treatment”. Also, in series [2], the “pH of 10% solution at 25° C.” value was 6.6. Further, the treatment for calciphylaxis entry in series [3] is on record as “effective treatment”. Also, the “treatment to prevent platinum-induced ototoxicity” value in series [4] is reported as “effective treatment”. The “treatment for vascular calcification” value in series [5] is “effective treatment”.
